How the values were obtained:
Format in all cases: functional
Rattus norvegicus [1] = assay: Tested for neuroleptic activity by measuring antagonism of d-amphetamine sulfate at intraperitoneal dosage of 5 mg/kg, after 1 hour in rat; Range is 3.2-10; conditions: ip
Rattus norvegicus [2] = assay: Tested for neuroleptic activity by measuring antagonism of d-amphetamine sulfate at intraperitoneal dosage of 5 mg/kg, after 5 hours in rat; conditions: ip
Rattus norvegicus [3] = species on record: Rattus norvegicus; assay: Inhibition of amphetamine induced stereotypy in rats; pretreated 1 hr before amphetamine.
Rattus norvegicus [4] = assay: Tested for neuroleptic activity by measuring antagonism of d-amphetamine sulfate at intraperitoneal dosage of 5 mg/kg, after 24 hours in rat; conditions: ip
Rattus norvegicus [5] = assay: Tested for neuroleptic activity by measuring antagonism of d-amphetamine sulfate at intraperitoneal dosage of 5 mg/kg, after 1 hour in rat; Range is 10-32; conditions: ip

## CCCN1CCc2c(c3cc(F)ccc3n2-c2ccc(F)cc2)C1.Cl
Rattus norvegicus [1]
  ED50: 3.2 mg/kg
Rattus norvegicus [2]
  ED50: > 10 mg/kg

## Cl.Cl.OC(CCCN1CCc2c(c3cc(F)ccc3n2-c2ccc(F)cc2)C1)c1cccnc1 (stereo not drawn)
Rattus norvegicus [2]
  ED50: > 3.2 mg/kg
Rattus norvegicus [3]
  ED50: > 3.2 mg/kg

## COc1ccc(-n2c3c(c4cc(F)ccc42)CN(CCCC(O)c2ccc(F)cc2)CC3)cc1.Cl (stereo not drawn)
Rattus norvegicus [2]
  ED50: 3.2 mg/kg
Rattus norvegicus [4]
  ED50: > 3.2 mg/kg
Rattus norvegicus [3]
  ED50: 1 mg/kg

## Cn1c2c(c3cc(F)ccc31)CN(CCCC(=O)c1ccc(F)cc1)CC2
Rattus norvegicus [5]
  ED50: 10 mg/kg
Rattus norvegicus [2]
  ED50: > 32 mg/kg

## Cl.O=C(CCCN1CCc2c(c3cc(F)ccc3n2-c2ccc(F)cc2)C1)c1cccs1
Rattus norvegicus [5]
  ED50: 10 mg/kg
Rattus norvegicus [2]
  ED50: > 32 mg/kg

## COc1ccc2c(c1)c1c(n2-c2ccc(F)cc2)CCN(C)C1.Cl
Rattus norvegicus [2]
  ED50: > 32 mg/kg
Rattus norvegicus [3]
  ED50: > 32 mg/kg

## Cl.Fc1ccc(-n2c3c(c4cc(F)ccc42)CN(CCc2ccccc2)CC3)cc1
Rattus norvegicus [5]
  ED50: 10 mg/kg
Rattus norvegicus [2]
  ED50: > 32 mg/kg

## Cl.O=C(CCCN1CCc2c(c3cc(F)ccc3n2-c2ccc(C(F)(F)F)cc2)C1)c1ccc(F)cc1
Rattus norvegicus [3]
  ED50: > 32 mg/kg

## CCN1CCc2c(c3cc(F)ccc3n2-c2ccc(F)cc2)C1.Cl
Rattus norvegicus [1]
  ED50: 3.2 mg/kg
Rattus norvegicus [2]
  ED50: > 10 mg/kg
Rattus norvegicus [4]
  ED50: > 10 mg/kg

## COc1ccc2c(c1)c1c(n2-c2ccccc2)CCN(C)C1.Cl
Rattus norvegicus [2]
  ED50: > 32 mg/kg
Rattus norvegicus [3]
  ED50: > 32 mg/kg

## Cl.Fc1ccc(C(CCCN2CCc3c(c4cc(F)ccc4n3-c3ccc(F)cc3)C2)c2ccc(F)cc2)cc1
Rattus norvegicus [2]
  ED50: > 32 mg/kg
Rattus norvegicus [4]
  ED50: > 32 mg/kg
Rattus norvegicus [3]
  ED50: > 32 mg/kg

## Cl.Fc1ccc(-n2c3c(c4cc(F)ccc42)CN(Cc2ccccc2)CC3)cc1
Rattus norvegicus [1]
  ED50: 3.2 mg/kg
Rattus norvegicus [2]
  ED50: > 10 mg/kg
Rattus norvegicus [4]
  ED50: > 10 mg/kg

## OC(CCCN1CCc2[nH]c3ccc(F)cc3c2C1)c1ccc(F)cc1 (stereo not drawn)
Rattus norvegicus [1]
  ED50: 3.2 mg/kg
Rattus norvegicus [2]
  ED50: > 10 mg/kg
Rattus norvegicus [4]
  ED50: > 10 mg/kg

## CN1CCc2c(c3cc(Br)ccc3n2-c2ccccc2)C1.Cl
Rattus norvegicus [1]
  ED50: 3.2 mg/kg

## Cl.OC(CCCN1CCc2c(c3cc(F)ccc3n2-c2ccc(F)cc2)C1)c1ccc(Cl)c(C(F)(F)F)c1 (stereo not drawn)
Rattus norvegicus [2]
  ED50: > 32 mg/kg
Rattus norvegicus [4]
  ED50: > 32 mg/kg
Rattus norvegicus [3]
  ED50: > 32 mg/kg

## Cc1ccc2c(c1)c1c(n2-c2ccccc2)CCN(C)C1
Rattus norvegicus [5]
  ED50: 10 mg/kg
Rattus norvegicus [2]
  ED50: > 32 mg/kg
Rattus norvegicus [4]
  ED50: > 32 mg/kg

## OC(CCCN1CCc2c(c3cc(F)ccc3n2-c2ccc(F)cc2)C1)c1cccs1 (stereo not drawn)
Rattus norvegicus [5]
  ED50: 10 mg/kg
Rattus norvegicus [2]
  ED50: > 32 mg/kg

## OC(CCN1CCc2c(c3cc(F)ccc3n2-c2ccc(F)cc2)C1)c1ccc(F)cc1 (stereo not drawn)
Rattus norvegicus [1]
  ED50: 3.2 mg/kg
Rattus norvegicus [2]
  ED50: > 10 mg/kg
Rattus norvegicus [4]
  ED50: > 10 mg/kg

## Fc1ccc(C(=CCCN2CCc3c(c4cc(F)ccc4n3-c3ccc(F)cc3)C2)c2ccc(F)cc2)cc1
Rattus norvegicus [2]
  ED50: > 32 mg/kg
Rattus norvegicus [4]
  ED50: > 32 mg/kg
Rattus norvegicus [3]
  ED50: > 32 mg/kg

## Cl.OC(CCCN1CCc2c(c3cc(F)ccc3n2-c2ccc(F)cc2)C1)c1cccc(C(F)(F)F)c1 (stereo not drawn)
Rattus norvegicus [2]
  ED50: > 10 mg/kg
Rattus norvegicus [3]
  ED50: > 10 mg/kg

## Fc1ccc(-n2c3c(c4cc(F)ccc42)CNCC3)cc1
Rattus norvegicus [5]
  ED50: 10 mg/kg

## Cl.O=C(CCCCN1CCc2c(c3cc(F)ccc3n2-c2ccc(F)cc2)C1)c1ccc(F)cc1
Rattus norvegicus [2]
  ED50: > 32 mg/kg
Rattus norvegicus [4]
  ED50: > 32 mg/kg
Rattus norvegicus [3]
  ED50: > 32 mg/kg

## CCOC(=O)N1CCc2c(c3cc(F)ccc3n2-c2ccc(F)cc2)C1
Rattus norvegicus [2]
  ED50: > 32 mg/kg
Rattus norvegicus [4]
  ED50: > 32 mg/kg
Rattus norvegicus [3]
  ED50: > 32 mg/kg

## Cc1ccc(C(=O)CCCN2CCc3c(c4cc(F)ccc4n3-c3ccc(F)cc3)C2)cc1
Rattus norvegicus [2]
  ED50: > 10 mg/kg
Rattus norvegicus [3]
  ED50: > 10 mg/kg

## COc1ccc(-n2c3c(c4cc(F)ccc42)CN(CCCC(=O)c2ccc(F)cc2)CC3)cc1.Cl
Rattus norvegicus [5]
  ED50: 10 mg/kg
Rattus norvegicus [2]
  ED50: > 32 mg/kg

## CC(C)(C)CCN1CCc2c(c3cc(F)ccc3n2-c2ccc(F)cc2)C1.Cl
Rattus norvegicus [2]
  ED50: > 10 mg/kg
Rattus norvegicus [4]
  ED50: > 10 mg/kg
Rattus norvegicus [3]
  ED50: > 10 mg/kg

## Cl.O=C(CCCN1CCc2c(c3cc(F)ccc3n2-c2cccc(C(F)(F)F)c2)C1)c1ccc(F)cc1
Rattus norvegicus [3]
  ED50: > 32 mg/kg

## CN1CCc2c(c3ccccc3n2-c2ccccc2)C1.Cl
Rattus norvegicus [5]
  ED50: 10 mg/kg
Rattus norvegicus [4]
  ED50: > 32 mg/kg

## Cl.OC(CCCN1CCc2c(c3cc(F)ccc3n2-c2cccc(C(F)(F)F)c2)C1)c1ccc(F)cc1 (stereo not drawn)
Rattus norvegicus [2]
  ED50: > 32 mg/kg
Rattus norvegicus [3]
  ED50: > 32 mg/kg

## Cl.OC(CCCN1CCc2c(c3cc(F)ccc3n2-c2cccc(F)c2)C1)c1ccc(F)cc1 (stereo not drawn)
Rattus norvegicus [1]
  ED50: 3.2 mg/kg
Rattus norvegicus [2]
  ED50: > 10 mg/kg

Source: ChEMBL document CHEMBL1121451, “Neuroleptic activity in 5-aryltetrahydro-gamma-carbolines” (J Med Chem, 1980)
